Results on 25 molecules are retold here after patent US9238658B2, “Substituted piperidinyl-carboxamide derivatives useful as SCD 1 inhibitors” (Janssen Pharmaceutica NV, priority 2011, dated 2016).

Usually IC50 stands for the concentration that gives 50% inhibition. Low readings indicate higher potency, high ones lower potency. One may read the inhibition as how much of the control response was suppressed. A lower inhibition goes with a weak effect.

SMILES strings stand for the structures.

For this experiment, the target named is SCD1 (Rattus norvegicus (Rat), UniProt P07308). The experiment can be described thus: SCD1 enzymatic assay in rat liver microsomes (RLM). The following applies: for inhibition at 1 µM: 1 μM test compound. Format: biochemical. The protocol: Step 1: Preparation of Rat Liver Microsome (RLM)
Sequence of SCD1 (P07308 whole entry): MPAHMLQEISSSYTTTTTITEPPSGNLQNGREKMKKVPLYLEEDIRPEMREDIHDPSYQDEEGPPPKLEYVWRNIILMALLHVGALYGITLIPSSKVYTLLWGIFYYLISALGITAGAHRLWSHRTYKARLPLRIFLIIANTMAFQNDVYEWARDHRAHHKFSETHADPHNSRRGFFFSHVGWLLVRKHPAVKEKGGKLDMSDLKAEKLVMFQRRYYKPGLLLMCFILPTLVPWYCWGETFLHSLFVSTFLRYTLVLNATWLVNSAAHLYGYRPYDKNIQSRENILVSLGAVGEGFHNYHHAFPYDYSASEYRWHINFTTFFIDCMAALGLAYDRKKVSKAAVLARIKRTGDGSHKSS
Sprague Dawley rats from Charles River (200-225 g) underwent 2-cycle of fast-re-feeding (24-hour fast followed by 24-hour feeding with fat-free high carbohydrate diet, Research Diet, D00042802). The livers were removed and homogenized 1:4 (w/v) with pre-chilled, homogenizing buffer (10 mM Tris-HCl, 0.25 M sucrose, 1 mM EDTA, pH 7.4, supplemented with protease inhibitor cocktail). The homogenate was spun at 12,000×g for 15 min at 4° C. The supernatant was then re-centrifuged at 100,000×g for 60 min at 4° C. The pellet was re-suspended in 2 ml pre-chilled […] potassium phosphate buffer, pH 7.2, 10 mM EDTA at a concentration of 20 mg/ml. The resulting rat liver microsome (RLM) preparation was stored at […].
Step 2: SCD1 Enzymatic Assay in RLM:
The SCD1 enzymatic assay was done in a volume of 50 μL using 10 μg of RLM (prepared as described above) in a 96-well polypropylene plate (enzyme reaction buffer contains 0.1 M K-Phosphate Buffer, 10 mM ATP, 6 mM MgCl2, 1 mM CoA, 1 mM β-NADH, 1.6 mM L-glutathione, 20 μM Stearoyl-CoA). Stearoyl-[9,10-^3H]—CoA (ARC-0390, 1 mCi/mL, 60 Ci/mmol,) was added at a final concentration of 2 μCi/mL. Test compound was then added to the reaction mixture at the selected concentration. After incubation at room temperature for 2 hours, 5 μL 1 N HCl was added to stop the reaction, followed by addition of 25 μL of 10% charcoal. The reaction mixture was then transferred to 96-well Multiscreen plate (Millipore, Cat# MSFCN6B50). [^3H2O] was collected into Opti-plate (PE, Cat #6005290) by centrifuge, at 1,000 rpm for 2 minutes. 150 μL Microscint 40 (PE, cat #6013641) was then added to each well and counted on Topcount for [^3H] counts per minute (cpm). The measured cpm values were fitted with Sigmoidal dose-response curve fit with Graphpad Prism.
For orientation: Liver microsomes are a subcellular fraction often used to study metabolism.

In the case of `CNC(=O)c1csc(NC(=O)N2CCC(N3CCc4ccc(F)cc43)CC2)n1` [Compound 23, 2-(4-(6-fluoroindolin-1-yl)piperidine-1-carboxamido)-N-methylthiazole-4-carboxamide], the IC50 was > 1000 nM and the inhibition at 1 µM was found to be 20%.

On to `CCN1CCc2nc(NC(=O)N3CCC(N4CCc5ccc(F)cc54)CC3)sc2C1` [Compound 53, N-(5-ethyl-4,5,6,7-tetrahydrothiazolo[5,4-c]pyridin-2-yl)-4-(6-fluoroindolin-1-yl)piperidine-1-carboxamide], for which the inhibition at 1 µM turned out to be 34%. Take `NC(=O)Cc1csc(NC(=O)N2CCC(N3CCc4ccc(F)cc43)CC2)n1` [Compound 30, N-(4-(2-amino-2-oxoethyl)thiazol-2-yl)-4-(6-fluoroindolin-1-yl)piperidine-1-carboxamide]: the IC50 was determined as 845 nM and testing at 1 µM gave an inhibition of 57%.

`CC(=O)N1CCc2nc(NC(=O)N3CCC(N4CCc5ccc(F)cc54)CC3)sc2C1` [Compound 40, N-(5-acetyl-4,5,6,7-tetrahydrothiazolo[5,4-c]pyridin-2-yl)-4-(6-fluoroindolin-1-yl)piperidine-1-carboxamide] returned an inhibition at 1 µM of 46%.

Molecule `CCCc1nc2ccc(NC(=O)N3CCC(c4noc5ccc(F)cc45)CC3)cc2o1` [Compound 7, 4-(5-fluorobenzo[d]isoxazol-3-yl)-N-(2-propylbenzo[d]oxazol-6-yl)piperidine-1-carboxamide] gave an IC50 of 1010 nM and an inhibition at 1 µM of 55%. In turn, `O=C(Nc1ccc(CO)cc1)N1CCC(N2CCc3ccc(F)cc32)CC1` [Compound 44, 4-(6-fluoroindolin-1-yl)-N-(4-(hydroxymethyl)phenyl)piperidine-1-carboxamide] displayed an inhibition at 1 µM of 31%. In the case of `CNC(=O)Cc1csc(NC(=O)N2CCC(N3CCc4ccc(F)cc43)CC2)n1` [Compound 28, 4-(6-fluoroindolin-1-yl)-N-(4-(2-(methylamino)-2-oxoethyl)thiazol-2-yl)piperidine-1-carboxamide], the IC50 was > 1000 nM and the inhibition at 1 µM stood at 22%.

`O=C(Nc1ccc2c(c1)CNCC2)N1CCC(N2CCc3ccc(F)cc32)CC1` [Compound 46, 4-(6-fluoroindolin-1-yl)-N-(1,2,3,4-tetrahydroisoquinolin-7-yl)piperidine-1-carboxamide]: at 1 µM the inhibition was 27%. `CCOC(=O)Cc1csc(NC(=O)N2CCC(c3noc4ccc(F)cc34)CC2)n1` [Compound 51, ethyl 2-(2-(4-(5-fluorobenzo[d]isoxazol-3-yl)piperidine-1-carboxamido)thiazol-4-yl)acetate] showed a half-inhibitory concentration (IC50) of 579 nM and an inhibition at 1 µM of 68%. For `NC(=O)CN1CCc2nc(NC(=O)N3CCC(N4CCc5ccc(F)cc54)CC3)sc2C1` [Compound 57, N-(5-(2-amino-2-oxoethyl)-4,5,6,7-tetrahydrothiazolo[5,4-c]pyridin-2-yl)-4-(6-fluoroindolin-1-yl)piperidine-1-carboxamide], the inhibition at 1 µM came out at 38%. Same read-out and setting: the value for `CCCCc1cc(NC(=O)N2CCC(c3noc4ccc(F)cc34)CC2)ccc1F` [Compound 8, N-(3-butyl-4-fluorophenyl)-4-(5-fluorobenzo[d]isoxazol-3-yl)piperidine-1-carboxamide] was 12%.

Molecule `NC(=O)c1cc(NC(=O)N2CCC(N3CCc4ccc(F)cc43)CC2)ccc1CO` [Compound 48, N-(3-carbamoyl-4-(hydroxymethyl)phenyl)-4-(6-fluoroindolin-1-yl)piperidine-1-carboxamide] returned an IC50 of 909 nM and an inhibition at 1 µM of 55%. The molecule `CNC(=O)c1cccc(NC(=O)N2CCC(c3noc4cc(F)ccc34)CC2)c1` [Compound 10, 4-(6-fluorobenzo[d]isoxazol-3-yl)-N-(3-(methylcarbamoyl)phenyl)piperidine-1-carboxamide] displayed an inhibition at 1 µM of 23%. `COC(=O)Cc1cnc(NC(=O)N2CCC(N3CCc4ccc(F)cc43)CC2)s1` [Compound 49, methyl 2-(2-(4-(6-fluoroindolin-1-yl)piperidine-1-carboxamido)thiazol-5-yl)acetate] returned an inhibition at 1 µM of 48%. On the same count and under the same terms, as for `CNC(=O)c1cccc(NC(=O)N2CCC(N3C(=O)Cc4ccccc43)CC2)c1` [Compound 1, N-(3-(methylcarbamoyl)phenyl)-4-(2-oxoindolin-1-yl)piperidine-1-carboxamide], the figure is 7%. Consider `CCOC(=O)c1cccc(NC(=O)N2CCC(N3CCc4ccc(F)cc43)CC2)c1` [Compound 41, ethyl 3-(4-(6-fluoroindolin-1-yl)piperidine-1-carboxamido)benzoate], for which the IC50 was 534 nM and the inhibition at 1 µM turned out to be 53%.

`Cc1csc(NC(=O)N2CCC(c3c[nH]c4ccccc34)CC2)n1` [Compound 65, 4-(1H-indol-3-yl)-N-(4-methylthiazol-2-yl)piperidine-1-carboxamide]: the inhibition at 1 µM was 2%. Same read-out and setting: the value for `CC(C)(C)[Si](C)(C)OC1CCc2nc(NC(=O)N3CCC(N4CCc5ccc(F)cc54)CC3)sc2C1` (stereo not drawn) [Compound 32, N-(6-((tert-butyldimethylsilyl)oxy)-4,5,6,7-tetrahydrobenzo[d]thiazol-2-yl)-4-(6-fluoroindolin-1-yl)piperidine-1-carboxamide] was 31%; that for `Cc1csc(NC(=O)N2CCC(c3noc4cc(F)ccc34)CC2)n1` [Compound 11, 4-(6-fluorobenzo[d]isoxazol-3-yl)-N-(4-methylthiazol-2-yl)piperidine-1-carboxamide] was 40%. Take `NC(=O)c1csc(NC(=O)N2CCC(N3CCc4ccc(F)cc43)CC2)n1` [Compound 26, 2-(4-(6-fluoroindolin-1-yl)piperidine-1-carboxamido)thiazole-4-carboxamide]: it took 682 nM to reach half-maximal inhibition (IC50) and the inhibition at 1 µM stood at 62%. The molecule `CCOC(=O)c1ccc(NC(=O)N2CCC(N3CCc4ccc(F)cc43)CC2)cc1` [Compound 42, ethyl 4-(4-(6-fluoroindolin-1-yl)piperidine-1-carboxamido)benzoate] returned an inhibition at 1 µM of 21%.

`CC(C)(C)OC(=O)N1CCc2nc(NC(=O)N3CCC(N4CCc5ccc(F)cc54)CC3)sc2C1` [Compound 34, tert-butyl 2-(4-(6-fluoroindolin-1-yl)piperidine-1-carboxamido)-6,7-dihydrothiazolo[5,4-c]pyridine-5(4H)-carboxylate] displayed an inhibition at 1 µM of 35%.

`CNC(=O)c1cccc(NC(=O)N2CCC(c3c[nH]c4ccccc34)CC2)c1` [Compound 64, 4-(1H-indol-3-yl)-N-(3-(methylcarbamoyl)phenyl)piperidine-1-carboxamide] had an inhibition at 1 µM of 15%. The same measure, in the same setting: the value for `CCOC(=O)CN1CCc2nc(NC(=O)N3CCC(N4CCc5ccc(F)cc54)CC3)sc2C1` [Compound 56, ethyl 2-(2-(4-(6-fluoroindolin-1-yl)piperidine-1-carboxamido)-6,7-dihydrothiazolo[5,4-c]pyridin-5(4H)-yl)acetate] was 42%. On the same count and under the same terms, the value for `O=C(Nc1nc(CN2CCCCC2)cs1)N1CCC(N2CCc3ccc(F)cc32)CC1` [Compound 31, 4-(6-fluoroindolin-1-yl)-N-(4-(piperidin-1-ylmethyl)thiazol-2-yl)piperidine-1-carboxamide] was 44%.
